Experimental data reported in PMC5118774 (Frontiers in Pharmacology, 2016).
“Also recorded” adds a separate entry of the source.

What was measured:
[1] = test system: mice exposed to unpredictable chronic mild stress (UCMS); assay: Elevated plus maze after UCMS; assay type: in vivo, C57BL/6J mice; conditions: for EPM percentage of entries into open arms: first cohort (Figure 2)
[2] = test system: mice exposed to unpredictable chronic mild stress (UCMS); assay: Composite emotionality Z-score across EPM, OFT, NSF, cookie test; assay type: in vivo, C57BL/6J mice
Description: To assess the consistency of effects of stress and drug treatment on overall stress-induced behavior, we calculated behavioral z-scores using the formula below. These normalized scores integrate measures of behavioral dimensions (e.g., emotionality) over time and tests, yielding a combined measure of the UCMS-induced behavioral syndrome ([Guilloux et al., 2011]).
Briefly, for each behavioral measure a Z-score was calculated for an individual animal indicating how many standard deviations (σ) a given observation (X) is from the mean of the control group (μ). These scores were averaged within test such that each test had the same weight, and then averaged across all four tests (EPM, OFT, NSF, cookie test) to obtain a composite emotionality Z-score for each mouse. In short, random or opposite behavior across tests yield null z-scores, whereas significant and/or trend-like behaviors across tests and consistently in the same directions yield high z-scores.

C#Cc1ccc2c(c1)C(c1ccccc1F)=N[C@H](C)c1c(C(=O)OCC)ncn1-2 [α5-PAM]
EPM open arm behavior ([1]; female UCMS mice, acute or chronic treatment, second cohort with non-stressed controls (Figure 3)): no effect
EPM percentage of entries into open arms ([1]; female UCMS mice, chronic 30 mg/kg i.p., vs UCMS-vehicle): anti-stress effect; also recorded: increased percentage of open arm entries
EPM, stress-induced behavior ([1]; male UCMS mice, 37.5 mg/kg acute or chronic (Figure 4B), 37.5 mg/kg): No change; also recorded: failed to reduce
EPM percentage of entries into open arms ([1]; male UCMS mice, acute or chronic 30 mg/kg i.p.): No significant differences; also recorded: no effect
EPM, UCMS-induced behavioral phenotype ([1]; male mice, UCMS plus single housing, chronic treatment (Figure 4A)): did not alter; also recorded: No significant effect
Z-emotionality score ([2]; female UCMS mice, acute 30 mg/kg i.p., first cohort (Figure 2)): Significant anti-stress effect
Z-emotionality score compared to non-stressed vehicle group ([2]; female UCMS mice, acute and chronic treatment groups, second cohort (Figure 3)): not statistically different
Z-emotionality score ([2]; female UCMS mice, acute treatment, vs UCMS-vehicle, second cohort (Figure 3)): normalized; also recorded: significantly decreased
Z-emotionality score ([2]; female UCMS mice, chronic 30 mg/kg i.p., first cohort (Figure 2)): Significant anti-stress effect
Z-emotionality score ([2]; female UCMS mice, chronic treatment, vs UCMS-vehicle, second cohort (Figure 3)): normalized; also recorded: significantly decreased
Composite emotionality Z-score ([2]; male UCMS mice, 37.5 mg/kg acute or chronic (Figure 4D), 37.5 mg/kg): No effect; also recorded: lack of anti-stress activity
Z-emotionality score ([2]; male UCMS mice, acute or chronic 30 mg/kg i.p., first cohort (Figure 2)): no effect
Summary emotionality Z-score ([2]; male mice, UCMS plus single housing, chronic treatment (Figure 4C)): lack of effect; also recorded: does not remediate
